Values after ≈ are worked out from the molar mass of the structure shown.
Test system: E. coli strain isolated from a patient with a urinary tract infection
Assay: microbe, parasite or virus in culture
Settings: Escherichia coli, read-out: minimum inhibitory concentration

MIC: 64 µg/mL (≈ 269 µM)
SMILES: O=C1CN(/N=C/c2ccc([N+](=O)[O-])o2)C(=O)N1 [nit, Nitrofurantoin]

Reference: patent US11168347B2, “Digital quantification of DNA replication and/or chromosome segregation based determination of antimicrobial susceptibility” (CALIFORNIA INSTITUTE OF TECHNOLOGY, priority 2016, dated 2021)
